The values below come from US8476317B2, “N-alkylcarbonyl-amino acid ester compounds and their use for cough and pharyngitis” (priority 2011, dated 2013).

In one series the test system is oral cavity / oropharynx. As to the kind of experiment: Cooling in oral cavity after application on dorsal surface of tongue. Format: in vivo, human. The method, then:
The subject is instructed to close and hold the substance in the mouth for at least 10 seconds and not to swallow. The description of sensations is then recorded at 5 to 10 minute intervals.
The compounds of Formula 1 are white crystalline solids at room temperatures. These compounds were tested as the pure powder (>95% purity, by HPLC analysis), or mixed 1:1 with powdered or granulated sugar. The test substances were applied at 2 to 5 mg on the mid-point of the dorsal surface of the tongue using a metal spatula or a plastic applicator. After depositing the test substance on the tongue, the subject was instructed to keep the mouth closed and allow the fluids of the mouth to inter-mix with the test substance and to distribute it to the back of the mouth (oropharynx). The presence and duration of subjective sensations from the mouth was then recorded.

The subject of another series is philtrum skin. As to the kind of experiment: Cooling on facial (philtrum) skin, ointment. Format: in vivo, human. The text has this: A reliable place for topical application is the skin above the upper lip (above the vermilion border of the lips), on the philtrum, lateral to the philtrum until the nasolabial folds, and on the lower nostrils (subnasale). This part of the face is known to be densely innervated with cold receptors, second only to the surfaces of the eyeball and anogenitalia. At this locus, tingling, cool and cold sensations in the skin may be experienced and rated for time of onset and intensity.
The intervals for recording sensations are 5 to 10 minutes, until two successive zeroes are obtained. The results (shown in FIG. 1) are averaged values of 4 to 6 separate trials in the same individual. The data are plotted using SigmaPlot® (Systat Software, Point Richmond Calif.) and a smoothing function with a negative exponential was used for analysis and statistical fit of the results. Confirmatory trials of cooling action of the long-acting NACE compounds were obtained in 2 to 4 individuals but not quantified for some because of the large number of chemicals that were evaluated.
The onset of drug action is taken as the time to reach 2 units of coolness intensity, and offset of drug action is the time when coolness intensity drops below 2, after previously surpassing 2 units. The duration of cooling action is defined as the offset time minus the onset time. […] The quality of the sensation is noted, for example, as pure refreshing coolness, or if the sensation is accompanied by irritation (stinging or burning). The quality of the sensation is not rated for intensity.
For bioassay on the skin, approximately 30 mg was stirred and dissolved in 3 g of warm liquid Aquaphor® ointment to a yield a 40 mM (˜1% wt/vol) ointment. The exact amount was adjusted so that the molar equivalent was about 35 to 40 mM. After cooling, 40 to 70 mg of the solid ointment was placed on the tip of a plastic stick and applied to the skin above the upper lip, on the philtrum, and lateral to the philtrum, up to the nasolabial folds, of test subjects and the onset and duration of cooling sensations noted.
The intervals for recording sensations were 5 to 10 minutes, until two successive zeroes were obtained. The results (shown in FIG. 1) are averaged values of 4 to 6 separate trials in the same individual. The data are plotted using SigmaPlot® (Systat Software, Point Richmond, Calif., USA) and a smoothing function with a negative exponential was used for analysis and statistical fit of the results.
The onset of drug action was taken as the time to reach 2 units of coolness intensity, and offset of drug action was the time when coolness intensity drops below 2, after previously surpassing 2 units. The duration of cooling action was defined as the offset time minus the onset time. […] The quality of the sensation was also noted: such as pure refreshing coolness, or if the sensation was accompanied by irritation (stinging or burning). The quality of the sensation was not rated for intensity.
In the results of FIG. 1, the test compounds were singly applied to the skin above the upper lips as a ˜1% wt/vol (10 mg/ml) ointment. Subsequently, for the results shown in Table 3, the test dose on the philtrum was reduced to a 0.5% wt/vol (5 mg/ml) ointment. The reason for choosing a lower dose was to increase the number of trials per individual and to have a reduced chance of substances accumulating in the skin.

The subject of series [1] is dorsal surface of the tongue. As to conditions: average of 6 subjects, filter paper on tongue; Watson et al.; cited from earlier work.

As for `CC1CCC(C(C)C)C(O)C1` (single isomer, unassigned; (-)) [(−)-menthol, reference compound], the “duration of cooling action of ODT” value in the series on oral cavity / oropharynx (ODT containing 5 to 10 mg) is reported as “less than 10 minutes”. The Cooling on tongue result in the series with oral cavity / oropharynx (Table 2 summary) is given as “yes”. Moreover, the “Acts for >1 hour at 40 mM” value in the series on philtrum skin (40 mM ointment on skin) is reported as “no”. In addition, in the series with philtrum skin (Table 2 summary), the “"perfect" cooling experience” value was “no”, the “Cooling on skin of face” value was “yes” and the “Eye Irritancy” value is given as “yes”. Also, the “Threshold, μg (cooling on tongue)” value in series [1] was 0.25 µg.
